From patent publication US9090944B2, “Biomarker DACT1 for gastric cancer” (The Chinese University of Hong Kong, priority 2011, dated 2015)

Assays:
AGS = test: Demethylation treatment with 5-Aza, DACT1 expression by semiquantitative RT-PCR; assay type: cell-based, human; conditions: 2 μM 5-Aza for 5 days
Experimental: (§1) Semiquantitative RT-PCR was performed in a total volume of 25 μL reaction containing GeneAmp 1×PCR Buffer II (Applied Biosystems), 2.5 mM MgCl2, 200 μM each of dNTP, 200 nM each of primers, 0.5 U of AmpliTaq Gold DNA polymerase (Applied Biosystems) and 30˜50 ng cDNA. The PCR program started with an initial denaturation at 95° C. for 10 min, followed by 32-35 cycles (94° C. for 30 sec, annealing temperature for 30 sec, and 72° C. for 30 sec) of amplification, with a final extension at 72° C. for 10 min. The PCR bands were visualized under ultraviolet light and photographed. The expression of the target gene was normalized by the expression of house keeping gene β-actin, which served as an internal control. Cells were seeded at a density of […]/100-mm dishes and grew for 24 hr. Cells were then treated with 2 μM 5-aza-2′-deoxycytidine (“5-Aza”) (Sigma-Aldrich) for 5 days. The 5-Aza was replenished every day. The gene expression of DACT1 was evaluated using semiquantitative RT-PCR.

KatoIII = test: as above; assay type: cell-based, human; conditions: 2 μM 5-Aza for 5 days
Experimental: as §1

Compound: Nc1ncn([C@H]2C[C@H](O)[C@@H](CO)O2)c(=O)n1 [5-Aza, 5-aza-2′-deoxycytidine]
- DACT1 expression after demethylation treatment (AGS): restored DACT1 expression
- DACT1 expression after demethylation treatment (KatoIII): restored DACT1 expression
